Values of other authors in patent publication US10980718B2, “Personal care compositions comprising poorly soluble compounds” (Conopco, Inc., priority 2016, dated 2021).

For `N[C@@H](CSSC[C@H](N)C(=O)O)C(=O)O` [cystine], the “solubility of cystine in aqueous solutions by pH” value (aqueous solutions with pH less than 2 or pH above 8) is given as “more soluble” and the “natural solubility limit of cystine” value (room temperature and neutral pH) is given as 0.01 wt %.
